According to patent US20210395239A1 (Hoffmann-La Roche Inc., priority 2018, published 2021):

Each molecule was assayed against T1, human TLR7 (Homo sapiens, UniProt Q9NYK1) (assay: HEK293-Blue-hTLR-7 cells assay (SEAP reporter, R848 stimulation)). Conditions: HEK293-Blue-hTLR7 cells, R848, 20 hrs; read-out: HEK/hTLR7 IC50.
T1 construct: host or cells: HEK293 (HEK-Blue hTLR7)
T1 sequence (Q9NYK1 27-1049): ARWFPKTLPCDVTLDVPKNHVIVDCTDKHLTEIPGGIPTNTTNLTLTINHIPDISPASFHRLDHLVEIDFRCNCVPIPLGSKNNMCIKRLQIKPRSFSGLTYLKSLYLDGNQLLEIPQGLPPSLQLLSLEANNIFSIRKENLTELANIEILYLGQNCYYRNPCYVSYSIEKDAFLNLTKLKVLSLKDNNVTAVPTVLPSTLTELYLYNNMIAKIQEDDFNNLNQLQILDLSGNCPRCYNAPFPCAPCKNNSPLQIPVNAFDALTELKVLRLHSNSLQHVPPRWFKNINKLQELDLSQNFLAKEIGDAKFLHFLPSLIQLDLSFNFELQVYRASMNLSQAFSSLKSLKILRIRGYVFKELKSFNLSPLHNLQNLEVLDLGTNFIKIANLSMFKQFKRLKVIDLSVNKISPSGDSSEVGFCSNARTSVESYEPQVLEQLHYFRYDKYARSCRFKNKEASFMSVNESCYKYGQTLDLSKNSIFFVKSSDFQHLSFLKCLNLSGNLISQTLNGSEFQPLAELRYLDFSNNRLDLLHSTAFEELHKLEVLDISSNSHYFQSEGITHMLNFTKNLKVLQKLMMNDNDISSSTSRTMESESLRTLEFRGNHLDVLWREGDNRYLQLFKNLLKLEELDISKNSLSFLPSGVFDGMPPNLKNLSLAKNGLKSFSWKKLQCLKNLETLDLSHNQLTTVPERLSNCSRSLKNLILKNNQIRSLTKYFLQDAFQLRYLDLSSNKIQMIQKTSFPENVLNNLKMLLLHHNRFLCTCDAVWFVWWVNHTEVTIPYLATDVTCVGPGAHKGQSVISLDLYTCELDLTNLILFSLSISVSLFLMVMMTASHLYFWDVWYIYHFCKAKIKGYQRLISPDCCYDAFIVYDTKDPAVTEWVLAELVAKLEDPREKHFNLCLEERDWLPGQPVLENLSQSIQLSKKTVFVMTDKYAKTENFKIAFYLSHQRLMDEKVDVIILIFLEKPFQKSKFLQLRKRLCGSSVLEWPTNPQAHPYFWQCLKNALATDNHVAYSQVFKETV
Type: cell-based
Outline: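 HEK293-Blue-hTLR7 cells (NF-κB/AP-1-driven SEAP reporter) were stimulated with R848 alongside serially diluted compound at 1% final DMSO for 20 h at 37 °C. Supernatant SEAP was then developed with QUANTI-Blue for 2 h at 37 °C and absorbance read at 620–655 nm; antagonism is measured as reduced reporter signal.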

`[2H]c1nc2c(C#N)ccc(N3C[C@H](CN4CCN(c5nc(C)cc(N6CC(N)C6)n5)CC4)O[C@H](C)C3)c2nc1[2H]` [Example 124, 8-[(2S,6R)-2-[[4-[4-(3-aminoazetidin-1-yl)-6-methyl-pyrimidin-2-yl]piperazin-1-yl]methyl]-6-methyl-morpholin-4-yl]-2,3-dideuterio-quinoxaline-5-carbonitrile] and `[2H]c1ccc2c(N3C[C@H](CN4CCN(c5nc(C)cc(N6CC(N)C6)n5)CC4)O[C@H](C)C3)ccc(C#N)c2n1` [Example 136, 5-[(2S,6R)-2-[[4-[4-(3-aminoazetidin-1-yl)-6-methyl-pyrimidin-2-yl]piperazin-1-yl]methyl]-6-methyl-morpholin-4-yl]-2-deuterio-quinoline-8-carbonitrile] are within 1.5-fold of each other in IC50: 5 nM for the first, 7 nM for the second.

Going from `Cc1cc(N2C[C@@H](N)[C@](C)(O)C2)nc(N2CCN(C[C@H]3CN(c4ccc(C#N)c5nccnc45)C[C@@H](C)O3)CC2)n1` [Example 125, 8-[(2S,6R)-2-[[4-[4-[(3R,4R)-4-amino-3-hydroxy-3-methyl-pyrrolidin-1-yl]-6-methyl-pyrimidin-2-yl]piperazin-1-yl]methyl]-6-methyl-morpholin-4-yl]quinoxaline-5-carbonitrile] to `[2H]c1ccc2c(N3C[C@H](CN4CCN(c5nc(C)cc(N6CC(C)(N)C6)n5)CC4)O[C@H](C)C3)ccc(C#N)c2n1` [Example 135, 5-[(2S,6R)-2-[[4-[4-(3-amino-3-methyl-azetidin-1-yl)-6-methyl-pyrimidin-2-yl]piperazin-1-yl]methyl]-6-methyl-morpholin-4-yl]-2-deuterio-quinoline-8-carbonitrile], the IC50 falls from 47 nM to 16 nM (2.9-fold). The second is the more potent here.

`Cc1ccc(N2C[C@H](CN3CCN(c4ccnc(N5CC6(CNCCO6)C5)n4)CC3)O[C@H](C)C2)c2nccnc12` [Example 126, 2-[4-[4-[[(2S,6R)-6-methyl-4-(8-methylquinoxalin-5-yl)morpholin-2-yl]methyl]piperazin-1-yl]pyrimidin-2-yl]-5-oxa-2,8-diazaspiro[3.5]nonane] and `Cc1ccc(N2C[C@H](CN3CCN(c4ccnc(N5CCN[C@@H](C)C5)n4)CC3)O[C@H](C)C2)c2nccnc12` [Example 127, (2R,6S)-2-methyl-6-[[4-[2-[(3S)-3-methylpiperazin-1-yl]pyrimidin-4-yl]piperazin-1-yl]methyl]-4-(8-methylquinoxalin-5-yl)morpholine] are within 1.5-fold of each other in IC50: 21 nM for the first, 29 nM for the second.

Compared with `Cc1ccc(N2C[C@H](CN3CCN(c4ccnc(N5CCN[C@H](C)C5)n4)CC3)O[C@H](C)C2)c2nccnc12` [Example 128, (2R,6S)-2-methyl-6-[[4-[2-[(3R)-3-methylpiperazin-1-yl]pyrimidin-4-yl]piperazin-1-yl]methyl]-4-(8-methylquinoxalin-5-yl)morpholine], `Cc1ccc(N2C[C@H](CN3CCN(c4ccnc(N5CC(N)C5)n4)CC3)O[C@H](C)C2)c2nccnc12` [Example 130, 1-[4-[4-[[(2S,6R)-6-methyl-4-(8-methylquinoxalin-5-yl)morpholin-2-yl]methyl]piperazin-1-yl]pyrimidin-2-yl]azetidin-3-amine] is 1.9-fold lower in IC50: 30 nM for the first, 16 nM for the second. The second is the more potent here.

`Cc1ccc(N2C[C@H](CN3CCN(c4ccnc(N5C[C@H]6NCCO[C@@H]6C5)n4)CC3)O[C@H](C)C2)c2nccnc12` [Example 129, (4aR,7aR)-6-[4-[4-[[(2S,6R)-6-methyl-4-(8-methylquinoxalin-5-yl)morpholin-2-yl]methyl]piperazin-1-yl]pyrimidin-2-yl]-3,4,4a,5,7,7a-hexahydro-2H-pyrrolo[3,4-b][1,4]oxazine] and `[2H]c1ccc2c(N3C[C@H](CN4CCN(c5nc(C)cc(N6C[C@H](OC)[C@@H](N)C6)n5)CC4)O[C@H](C)C3)ccc(C#N)c2n1` [Example 134, 5-[(2S,6R)-2-[[4-[4-[(3S,4S)-3-amino-4-methoxy-pyrrolidin-1-yl]-6-methyl-pyrimidin-2-yl]piperazin-1-yl]methyl]-6-methyl-morpholin-4-yl]-2-deuterio-quinoline-8-carbonitrile] are within 1.5-fold of each other in IC50: 20 nM for the first, 25 nM for the second.

Going from `[2H]c1ccc2c(N3C[C@H](CN4CCN(c5nc(OC)cc(N6CC(C)(N)C6)n5)CC4)O[C@H](C)C3)ccc(C#N)c2n1` [Example 131, 5-[(2S,6R)-2-[[4-[4-(3-amino-3-methyl-azetidin-1-yl)-6-methoxy-pyrimidin-2-yl]piperazin-1-yl]methyl]-6-methyl-morpholin-4-yl]-2-deuterio-quinoline-8-carbonitrile] to `[2H]c1ccc2c(N3C[C@H](CN4CCN(c5ccc(N6CC(C)(N)C6)nc5C)CC4)O[C@H](C)C3)ccc(C#N)c2n1` [Example 137, 5-[(2S,6R)-2-[[4-[6-(3-amino-3-methyl-azetidin-1-yl)-2-methyl-3-pyridyl]piperazin-1-yl]methyl]-6-methyl-morpholin-4-yl]-2-deuterio-quinoline-8-carbonitrile], the IC50 falls from 32 nM to 19 nM (1.7-fold). The second is the more potent here.

Going from `[2H]c1ccc2c(N3C[C@H](CN4CCN(c5ccc(N6CC(C)(N)C6)nc5)CC4)O[C@H](C)C3)ccc(C#N)c2n1` [Example 132, 5-[(2S,6R)-2-[[4-[6-(3-amino-3-methyl-azetidin-1-yl)-3-pyridyl]piperazin-1-yl]methyl]-6-methyl-morpholin-4-yl]-2-deuterio-quinoline-8-carbonitrile] to `[2H]c1ccc2c(N3C[C@H](CN4CCN(c5cnc(N6CC(C)(N)C6)cc5C)CC4)O[C@H](C)C3)ccc(C#N)c2n1` [Example 133, 5-[(2S,6R)-2-[[4-[6-(3-amino-3-methyl-azetidin-1-yl)-4-methyl-3-pyridyl]piperazin-1-yl]methyl]-6-methyl-morpholin-4-yl]-2-deuterio-quinoline-8-carbonitrile], the IC50 rises from 23 nM to 41 nM (1.8-fold).

`[2H]c1ccc2c(N3C[C@H](CN4CC(c5ccc(N6CC(C)(N)C6)nc5)C4)O[C@H](C)C3)ccc(C#N)c2n1` [Example 138, 5-[(2S,6R)-2-[[3-[6-(3-amino-3-methyl-azetidin-1-yl)-3-pyridyl]azetidin-1-yl]methyl]-6-methyl-morpholin-4-yl]-2-deuterio-quinoline-8-carbonitrile] and `[2H]c1ccc2c(N3C[C@H](CN4CC(c5ccc(N6CC(C)(N)C6)cc5)C4)O[C@H](C)C3)ccc(C#N)c2n1` [Example 141, 5-[(2S,6R)-2-[[3-[4-(3-amino-3-methyl-azetidin-1-yl)phenyl]azetidin-1-yl]methyl]-6-methyl-morpholin-4-yl]-2-deuterio-quinoline-8-carbonitrile] are within 1.5-fold of each other in IC50: 5 nM for the first, 4 nM for the second.

`[2H]c1ccc2c(N3C[C@H](CN4CCN(c5ncc(N6CC(C)(N)C6)cc5C)CC4)O[C@H](C)C3)ccc(C#N)c2n1` [Example 139, 5-[(2S,6R)-2-[[4-[5-(3-amino-3-methyl-azetidin-1-yl)-3-methyl-2-pyridyl]piperazin-1-yl]methyl]-6-methyl-morpholin-4-yl]-2-deuterio-quinoline-8-carbonitrile] and `[2H]c1ccc2c(N3C[C@H](CN4CCN(c5ncc(N6C[C@@H](N)[C@H](OC)C6)cc5C)CC4)O[C@H](C)C3)ccc(C#N)c2n1` [Example 142, 5-[(2S,6R)-2-[[4-[5-[(3R,4R)-3-amino-4-methoxy-pyrrolidin-1-yl]-3-methyl-2-pyridyl]piperazin-1-yl]methyl]-6-methyl-morpholin-4-yl]-2-deuterio-quinoline-8-carbonitrile] are the same in IC50: 20 nM for the first, 20 nM for the second.

`[2H]c1ccc2c(N3C[C@H](CN4CC(c5ccc(N6C[C@H](OC)[C@@H](N)C6)cc5)C4)O[C@H](C)C3)ccc(C#N)c2n1` [Example 140, 5-[(2S,6R)-2-[[3-[4-[(3S,4S)-3-amino-4-methoxy-pyrrolidin-1-yl]phenyl]azetidin-1-yl]methyl]-6-methyl-morpholin-4-yl]-2-deuterio-quinoline-8-carbonitrile] and `[2H]c1ccc2c(N3C[C@H](CN4CCN(c5ccc(N6C[C@@H](N)[C@H](OC)C6)nc5)CC4)O[C@H](C)C3)ccc(C#N)c2n1` [Example 143, 5-[(2S,6R)-2-[[4-[6-[(3R,4R)-3-amino-4-methoxy-pyrrolidin-1-yl]-3-pyridyl]piperazin-1-yl]methyl]-6-methyl-morpholin-4-yl]-2-deuterio-quinoline-8-carbonitrile] are within 1.5-fold of each other in IC50: 22 nM for the first, 21 nM for the second.
